Data set [1] has as its system P. falciparum 3D7 strain stage III–V gametocytes. Description: alamarBlue gametocyte viability assay, 1,536-well plate format. It is filed as cell-based, Plasmodium falciparum. (Alamar Blue is a resazurin reagent that responds to reducing activity.)
The nature of data set [2]: cytotoxicity assay against SH-SY5Y neuroblastoma cells. The following applies: human.
The test system of data set [3] is P. falciparum gametocytes. The note with it: read-out: IC50 reported in 96-well plate format; cited from earlier work.
The nature of the next data set: in vitro. The note with it: human.
In data set [4] the test system is SH-SY5Y neuroblastoma cell line. Put plainly: cytotoxicity assay against SH-SY5Y neuroblastoma cells. The note with it: SH-SY5Y cells; lowest compound concentration 0.37 μM.
The mark [5] stands for this setting: Plasmodium falciparum, 3D7, 72 h, read-out: IC50 (gametocyte assay).

The structures appear in SMILES notation. Where two headings read alike, the source gives them in different places.

The term IC50 denotes the concentration that inhibits the measured activity by half. In the case of `c1cnc2c(c1)ccc1cccnc12` [Phenanthroline, 1,10-phenanthroline], the IC50 in data set [1] (setting [5]) amounted to 2190 nM; in data set [2] (SH-SY5Y neuroblastoma cells) it was 5450 nM.

`CNc1ccc2oc(C[C@H]3O[C@@]4(CC[C@H]3C)O[C@H]([C@H](C)C(=O)c3ccc[nH]3)[C@H](C)C[C@H]4C)nc2c1C(=O)O` [Calcimycin]: the results for the IC50 in data set [1] (setting [5]) and in data set [2] were 1960 nM and 1370 nM, respectively.

In the case of `CC[C@H](C)[C@H](NC(=O)[C@H]([C@@H](C)CC)N(C)C(C)=O)C(=O)N[C@H](C(=O)N[C@@H](CC(C)C)C(=O)[C@@]1(C)CO1)[C@@H](C)O` [epoxomicin], the IC50 in data set [1] (seeding density 10 k gametocytes/well, 1,536-well plate) was 1.3 nM; in data set [1] (seeding density 20 k gametocytes/well, 1,536-well plate), 1.8 nM; in data set [1] (seeding density 27.5 k gametocytes/well, 1,536-well plate), 2.1 nM; in data set [3], 2.16 nM.

Regarding `Cc1cc(NC2CCCCC2)nc(-n2nc(C)cc2C)n1` [CyPPA, Cyclohexyl-[2-(3,5-dimethyl-pyrazol-1-yl)-6-methyl-pyrimidin-4-yl]-amine], the IC50 in data set [1] (setting [5]) is 1170 nM; in data set [2] (SH-SY5Y neuroblastoma cells), 9160 nM.

Regarding `CCN(CC)C(=S)SSC(=S)N(CC)CC` [Antabuse], the IC50 in data set [1] (setting [5]) was 250 nM; in “in vitro” it was 13400 nM.

On to `c1ccc2c(c1)[I+]c1ccccc1-2` [Dibenziodolium], for which the “cytotoxicity at lowest compound concentration tested” value in data set [4] was “completely cytotoxic”.

On to `Clc1ccccc1C(c1ccccc1)(c1ccccc1)n1ccnc1` [Clotrimazole], for which, in “in vitro”, the midpoint of inhibition, the IC50, lay at 9480 nM.

The record behind these values is article PMC3640759 (Molecular and biochemical parasitology, 2013).
